From patent US11497734B2, “Dual inhibitors of TIM-3 and PD-1 pathways” (Aurigene Discovery Technologies Limited, priority 2017, dated 2022)

Experiments:
[1] = test system: recombinant human TIM-3; test: Human PBMC IFN-γ release assay in the presence of recombinant TIM-3; assay type: cell-based; details: 100 nM compound, plate-coated TIM-3 + anti-CD3, anti-CD28, 72 h
Experimental: Vehicle: Milli Q water; RPMI 1640 (GIBCO, Cat #11875); Fetal Bovine Serum [Hyclone, Cat #SH30071.03]; Penicillin (10000 unit/ml)-Streptomycin (10,000 μg/ml) liquid (GIBCO, Cat #15140-122); MEM Sodium Pyruvate solution 100 mM (100×). Liquid (GIBCO, Cat #11360); Nonessential amino acid (GIBCO, Cat #11140); L-Glutamine (GIBCO, Cat #25030); Recombinant human TIM-3 (rhGi24 TIM-3/B7-H5 Fc chimera (R&D systems, cat no: 7126-B7); Anti-h/m Gi24/TIM-3/B7-H5 purified mouse monoclonal IgG2B (R&D systems, cat no: MAB7126); Mouse IgG2B isotype control (R&D Systems cat no: MAB 004); Anti human-CD3 antibody (eBiosciences—16-0039); Anti human-CD28 antibody (eBiosciences—16-0289); Histopaque (density-1.077 gm/ml) (SIGMA 1077); Trypan Blue solution (SIGMA-T8154); Hemacytometer (Bright line-SIGMA Z359629); FACS Buffer containing Phosphate Buffered Saline (PBS) pH 7.2; (HiMedia TS1006) with 0.1% Bovine Serum Albumin (BSA) (SIGMA A7050) and sodium azide (SIGMA 08591); 96-well format ELISA plates (Corning 3599); 96-well format ELISA plates (Corning 3361); BD FACS caliber (E6016); Centrifuge (Eppendorf 5810 R); Human IFN-'γ Duo set ELISA kit (R&D Systems; cat no: DY-285).
Human PBMC IFN-γ Release Assay
96-well cell culture plates were pre-coated with recombinant human TIM-3 (2.5 μg/ml) and anti-human CD3 (2.5 μg/ml), and stored at 4° C. overnight. Anti-human TIM-3 and isotype control antibodies were either coated along with the TIM-3 or incubated for 30 min next day before addition of cells. On the next day, plates were washed with 1× PBS and then incubated with test compounds for 30 min. Isolated PBMC (0.1×10^6 cells/well) and anti-human CD28 antibodies (1 μg/ml) were added to the wells. The culture was further incubated for 72 h at 37° C. with 5% CO2. After 72 h of incubation the cell culture supernatants were collected after brief centrifugation at 200 g×5 min at 4° C. and processed for human IFN-γ measurement by ELISA following manufacturer's protocol (R&D Systems; DY-285).
In brief, 96-well ELISA plates were coated with 100 μl/well of capture antibody in coating buffer and incubated overnight at 4° C. Plates were washed five times with wash buffer and further blocked with 200 μl of 1× assay diluents for 1 hr at RT. Following wash step, 100 μl of cell culture supernatants were added to wells and further incubated for 2 hr at RT. Appropriate standards were also included. After wash step, plate was incubated for one hour with 100 μl/well of detection antibody. The wash step was repeated and the plate was incubated for 30 min with 100 μl/well of Avidin-HRP. The plate was washed four times with wash buffer and subsequently incubated for 15 min with 100 μl/well of substrate solution. 50 μl of stop solution was added to each well and the plate was read at 450 nm using Gen5 ver 2.05. Delta OD values were used for calculating the concentrations. The absorbance values were plotted against the standards and the concentration of IFN-γ was determined using GraphPad Prism software. Each experimental condition was carried out in triplicates.
The percent rescue of IFN-γ release of the selected compounds of present invention are set forth below wherein “A” refers to compounds having more than 70% rescue of IFN-γ release, “B” refers to compounds having rescue of IFN-γ release ranges from 50% to 69.9% and “C” refers to compounds having less than 50% rescue of IFN-γ release.

[2] = biological target: T1, PD-L1 (Mus musculus, UniProt Q9EP73); test: Rescue of mouse splenocyte proliferation in the presence of recombinant PD-L1 (CFSE proliferation assay); assay type: cell-based; details: 100 nM compound; anti-CD3/CD28 stimulated mouse splenocytes + PD-L1; 72 h; read-out: PDL1 (rescue of proliferation @ 100 nM)
T1 construct: Fc (Fc chimera); purchased R&D Systems 1019-B7-100
T1 sequence (Q9EP73 19-238 limits assumed): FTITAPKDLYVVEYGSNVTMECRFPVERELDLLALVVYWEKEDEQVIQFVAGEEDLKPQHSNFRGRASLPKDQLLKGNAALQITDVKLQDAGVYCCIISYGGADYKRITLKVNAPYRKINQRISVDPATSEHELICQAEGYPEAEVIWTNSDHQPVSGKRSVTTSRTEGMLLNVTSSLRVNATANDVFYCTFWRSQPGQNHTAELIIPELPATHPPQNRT
Experimental: Example 1: Rescue of Mouse Splenocyte Proliferation in the Presence of Recombinant PD-L1/PD-L2
Recombinant mouse PD-L1 (rm-PDL-1, cat no: 1019-B7-100; R&D Systems) were used as the source of PD-L1.
Mouse splenocytes harvested from 6-8 weeks old C57 BL6 mice; RPMI 1640 (GIBCO, Cat #11875); DMEM with high glucose (GIBCO, Cat #D6429); Fetal Bovine Serum [Hyclone, Cat #SH30071.03]; Penicillin (10000 unit/mL)-Streptomycin (10,000 μg/mL) Liquid (GIBCO, Cat #15140-122); MEM Sodium Pyruvate solution 100 mM (100×)), Liquid (GIBCO, Cat #11360); Nonessential amino acid (GIBCO, Cat #11140); L-Glutamine (GIBCO, Cat #25030); Anti-CD3 antibody (eBiosciences—16-0032); Anti-CD28 antibody (eBiosciences—16-0281); ACK lysis buffer (1 mL) (GIBCO, Cat #-A10492); Histopaque (density—1.083 gm/mL) (SIGMA 10831); Trypan blue solution (SIGMA-T8154); 2 mL Norm Ject Luer Lock syringe-(Sigma 2014-12); 40 μm nylon cell strainer (BD FALCON 35230); Hemacytometer (Bright line-SIGMA Z359629); FACS Buffer (PBS/0.1% BSA): Phosphate Buffered Saline (PBS) pH 7.2 (HiMedia TS1006) with 0.1% Bovine Serum Albumin (BSA) (SIGMA A7050) and sodium azide (SIGMA 08591); 5 mM stock solution of CFSE: CFSE stock solution was prepared by diluting lyophilized CFSE with 180 μL of Dimethyl sulfoxide (DMSO C2H6SO, SIGMA-D-5879) and aliquoted in to tubes for further use. Working concentrations were titrated from 10 μM to 1 μM. (eBioscience-650850-85); 0.05% Trypsin and 0.02% EDTA (SIGMA 59417C); 96-well format ELISA plates (Corning CLS3390); BD FACS caliber (E6016); Recombinant mouse B7-H1/PDL1 Fc Chimera, (rm-PD-L1 cat no: 1019-B7-100).
Splenocytes harvested in a 50 mL falcon tube by mashing mouse spleen in a 40 μm cell strainer were further treated with 1 mL ACK lysis buffer for 5 min at room temperature. After washing with 9 mL of RPMI complete media, cells were re-suspended in 3 mL of 1×PBS in a 15 mL tube. 3 mL of Histopaque was added carefully to the bottom of the tube without disturbing overlaying splenocyte suspension. After centrifuging at 800×g for 20 min at room temperature, the opaque layer of splenocytes was collected carefully without disturbing/mixing the layers. Splenocytes were washed twice with cold 1×PBS followed by total cell counting using Trypan Blue exclusion method and used further for cell based assays.
Splenocytes were cultured in RPMI complete media (RPMI+10% fetal bovine serum+1 mM sodium pyruvate+10,000 units/mL penicillin and 10,000 μg/mL streptomycin) and maintained in a CO2 incubator with 5% CO2 at 37° C.
CFSE Proliferation Assay: CFSE is a dye that passively diffuses into cells and hinds to intracellular proteins. 1×10^6 cells/mL of harvested splenocytes were treated with 5 μM of CFSE in pre-warmed 1×PBS/0.1% BSA solution for 10 min at 37° C. Excess CFSE was quenched using 5 volumes of ice-cold culture media to the cells and incubated on ice for 5 min. CFSE labeled splenocytes were further given three washes with ice cold complete RPMI media. CFSE labeled 1×10^5 splenocytes added to wells containing either MDA-MB231 cells (1×10^5 cells cultured in high glucose DMEM medium) or recombinant human PDL-1 (100 ng/mL) and test compounds. Splenocytes were stimulated with anti-mouse CD3 and anti-mouse CD28 antibody (1 μg/mL each), and the culture was further incubated for 72 h at 37° C. with 5% CO2. Cells were harvested and washed thrice with ice cold FACS buffer and % proliferation was analysed by flow cytometry with 488 nm excitation and 521 nm emission filters. Data Compilation, Processing and Inference: […]

activity at 0.1 µM [2]	Structure (SMILES)	TIM-3 (rescue of IFN γ release @ 100 nM) [1]
68%	CC(O)[C@H](NC(=O)N[C@@H](CC(N)=O)c1nc([C@@H](N)CCC(=O)O)no1)C(=O)O (stereo partly drawn) [Compound 1]	B (rescue of IFN-γ release ranges from 50% to 69.9%)
73%	CCC(C)[C@H](NC(=O)N[C@@H](CC(N)=O)c1nc([C@@H](N)CO)no1)C(=O)O (stereo partly drawn) [Compound 2]	A (more than 70% rescue of IFN-γ release)
62%	CC(O)[C@H](NC(=O)N[C@@H](CC(N)=O)c1nc([C@@H](N)Cc2ccccc2)no1)C(=O)O (stereo partly drawn) [Compound 3]	A (more than 70% rescue of IFN-γ release)
52%	CC(O)[C@H](NC(=O)N[C@@H](CC(=O)O)c1nc([C@@H](N)CO)no1)C(=O)O (stereo partly drawn) [Compound 4]	C (less than 50% rescue of IFN-γ release)
88%	CC(O)[C@H](NC(=O)N[C@@H](CCC(=O)O)c1nc([C@@H](N)CO)no1)C(=O)O (stereo partly drawn) [Compound 5]	A (more than 70% rescue of IFN-γ release)
52%	CC(O)[C@H](NC(=O)N[C@@H](CCC(=O)O)c1nc([C@@H](N)CCCCN)no1)C(=O)O (stereo partly drawn) [Compound 6]	A (more than 70% rescue of IFN-γ release)
74%	CC(O)[C@H](NC(=O)N[C@H](CC(N)=O)c1nc([C@@H](N)CO)no1)C(=O)O (stereo partly drawn) [Compound 7]	A (more than 70% rescue of IFN-γ release)
68%	CC(O)[C@@H](N)c1noc([C@@H](CC(N)=O)NC(=O)N[C@H](CO)C(=O)O)n1 (stereo partly drawn) [Compound 8]	B (rescue of IFN-γ release ranges from 50% to 69.9%)
138%	CC(C)[C@H](NC(=O)N[C@@H](CC(N)=O)c1nc([C@@H](N)CCCCN)no1)C(=O)O [Compound 9]	C (less than 50% rescue of IFN-γ release)
53%	CSCC[C@H](N)c1noc([C@H](CC(N)=O)NC(=O)N[C@@H](CC(=O)O)C(=O)O)n1 [Compound 10]	C (less than 50% rescue of IFN-γ release)
60%	NCCCC[C@H](N)c1noc([C@H](CCC(=O)O)NC(=O)N[C@@H](CO)C(=O)O)n1 [Compound 11]	C (less than 50% rescue of IFN-γ release)
41%	NCCCC[C@H](N)c1noc([C@H](CC(N)=O)NC(=O)N[C@@H](CO)C(=O)O)n1 [Compound 12]	A (more than 70% rescue of IFN-γ release)
66%	CC(O)[C@H](NC(=O)N[C@@H](CCCCN)c1nc([C@@H](N)CO)no1)C(=O)O (stereo partly drawn) [Compound 13]	C (less than 50% rescue of IFN-γ release)
84%	COC(C)[C@H](NC(=O)N[C@@H](CC(N)=O)c1nc([C@@H](N)CO)no1)C(=O)O (stereo partly drawn) [Compound 14]	C (less than 50% rescue of IFN-γ release)
50%	CCC(C)[C@H](NC(=O)N[C@H](C(=O)O)C(C)O)c1nc([C@@H](N)CO)no1 (stereo partly drawn) [Compound 15]	C (less than 50% rescue of IFN-γ release)
92%	CC(O)[C@H](NC(=O)N[C@@H](CC(N)=O)c1nc(C2COCCN2)no1)C(=O)O (stereo partly drawn) [Compound 16]	B (rescue of IFN-γ release ranges from 50% to 69.9%)
57%	CC(O)[C@H](NC(=O)N[C@@H](CCC(=O)O)c1nc(C2COCCN2)no1)C(=O)O (stereo partly drawn) [Compound 17]	C (less than 50% rescue of IFN-γ release)
57%	N[C@@H](Cc1ccc(O)cc1)c1noc([C@@H]2CC(O)CN2C(=O)N[C@@H](Cc2ccc(O)cc2)C(=O)O)n1 (stereo partly drawn) [Compound 18]	C (less than 50% rescue of IFN-γ release)
54%	N[C@@H](Cc1ccc(O)cc1)c1noc([C@@H]2CCCCN2C(=O)N[C@@H](Cc2ccc(O)cc2)C(=O)O)n1 [Compound 19]	C (less than 50% rescue of IFN-γ release)
37%	CC(=O)NCCCC[C@H](NC(=O)N[C@H](C(=O)O)C(C)O)c1nc([C@@H](N)CO)no1 (stereo partly drawn) [Compound 20]	C (less than 50% rescue of IFN-γ release)
50%	CC(O)[C@H](NC(=O)N[C@@H](CC(N)=O)c1nc([C@@H](N)Cc2ccc(O)cc2)no1)C(=O)O (stereo partly drawn) [Compound 21]	C (less than 50% rescue of IFN-γ release)
